Tests used:
[1] = molecular target: 3',5'-cyclic-AMP phosphodiesterase 4B (Homo sapiens, UniProt Q07343); assay: Inhibition of PDE4B1 (unknown origin) using FAM-cyclic-3',5'-AMP as substrate incubated for 1 hrs by fluorescence polarization based IMAP assay
[2] = molecular target: T1, 3',5'-cyclic-AMP phosphodiesterase 4D (Homo sapiens, UniProt Q08499); assay: Inhibition of PDE4D7 (unknown origin) using FAM-cyclic-3',5'-AMP as substrate incubated for 1 hrs by fluorescence polarization based IMAP assay
T1 sequence (Q08499 whole entry): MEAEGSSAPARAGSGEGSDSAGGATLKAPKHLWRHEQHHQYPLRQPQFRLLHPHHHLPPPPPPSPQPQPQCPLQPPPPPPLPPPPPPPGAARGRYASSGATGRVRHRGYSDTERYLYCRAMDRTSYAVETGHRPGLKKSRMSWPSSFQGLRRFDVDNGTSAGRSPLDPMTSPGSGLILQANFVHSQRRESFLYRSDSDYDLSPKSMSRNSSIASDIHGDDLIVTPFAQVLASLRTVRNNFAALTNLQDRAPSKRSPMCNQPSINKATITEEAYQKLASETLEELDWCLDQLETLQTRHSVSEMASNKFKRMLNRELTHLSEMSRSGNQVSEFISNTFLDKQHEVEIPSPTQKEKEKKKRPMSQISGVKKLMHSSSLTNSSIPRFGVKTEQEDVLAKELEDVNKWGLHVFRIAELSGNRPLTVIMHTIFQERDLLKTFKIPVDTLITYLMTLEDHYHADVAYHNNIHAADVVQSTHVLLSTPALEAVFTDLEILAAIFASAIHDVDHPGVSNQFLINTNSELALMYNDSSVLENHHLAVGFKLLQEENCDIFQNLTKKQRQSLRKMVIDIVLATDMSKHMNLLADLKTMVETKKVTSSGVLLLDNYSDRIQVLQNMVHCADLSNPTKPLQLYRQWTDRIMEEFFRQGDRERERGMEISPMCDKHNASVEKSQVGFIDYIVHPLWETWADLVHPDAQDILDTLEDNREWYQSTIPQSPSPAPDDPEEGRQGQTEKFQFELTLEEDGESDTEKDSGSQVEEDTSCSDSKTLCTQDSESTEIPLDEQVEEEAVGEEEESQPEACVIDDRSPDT

[3] = molecular target: T1, 3',5'-cyclic-AMP phosphodiesterase 4D; assay: Inhibition of PDE4D7 (unknown origin) using FAM-cyclic-3',5'-AMP as substrate at 100 nM incubated for 1 hrs by fluorescence polarization based IMAP assay relative to control
[4] = molecular target: T1, 3',5'-cyclic-AMP phosphodiesterase 4D; assay: Inhibition of PDE4D7 (unknown origin) using FAM-cyclic-3',5'-AMP as substrate at 10 nM incubated for 1 hrs by fluorescence polarization based IMAP assay relative to control
SH-SY5Y = assay: Cytotoxicity against human SH-SY5Y cells assessed as reduction in cell viability incubated for 48 hrs by MTT assay; assay type: toxicity, cell-based
HT-22 = assay: Cytotoxicity against mouse HT-22 cells assessed as reduction in cell viability incubated for 48 hrs by MTT assay; assay type: toxicity, cell-based; conditions: ht-22, 48 h
[5] = Chemical stability of compound in aqueous solution at pH <6 measured after 48 hrs; assay type: physicochemical; conditions: buffer
[6] = Chemical stability of compound in aqueous solution at pH >10 measured after 48 hrs; assay type: physicochemical; conditions: buffer
[7] = Selectivity ratio for inhibition of PDE9A (unknown origin) using FAM-cyclic-3',5'-AMP as substrate to inhibition of PDE4B1 (unknown origin) using FAM-cyclic-3',5'-AMP as substrate
[8] = Selectivity ratio for inhibition of PDE8A1 (unknown origin) using FAM-cyclic-3',5'-AMP as substrate to inhibition of PDE4B1 (unknown origin) using FAM-cyclic-3',5'-AMP as substrate
[9] = molecular target: cGMP-inhibited 3',5'-cyclic phosphodiesterase 3B (Homo sapiens) (UniProt Q13370); assay: Inhibition of PDE3B (unknown origin) using FAM-cyclic-3',5'-AMP as substrate at 10 uM incubated for 1 hrs by fluorescence polarization based IMAP assay relative to control
Chain of cGMP-inhibited 3',5'-cyclic phosphodiesterase 3B (Homo sapiens) (Q13370 whole entry, looked up): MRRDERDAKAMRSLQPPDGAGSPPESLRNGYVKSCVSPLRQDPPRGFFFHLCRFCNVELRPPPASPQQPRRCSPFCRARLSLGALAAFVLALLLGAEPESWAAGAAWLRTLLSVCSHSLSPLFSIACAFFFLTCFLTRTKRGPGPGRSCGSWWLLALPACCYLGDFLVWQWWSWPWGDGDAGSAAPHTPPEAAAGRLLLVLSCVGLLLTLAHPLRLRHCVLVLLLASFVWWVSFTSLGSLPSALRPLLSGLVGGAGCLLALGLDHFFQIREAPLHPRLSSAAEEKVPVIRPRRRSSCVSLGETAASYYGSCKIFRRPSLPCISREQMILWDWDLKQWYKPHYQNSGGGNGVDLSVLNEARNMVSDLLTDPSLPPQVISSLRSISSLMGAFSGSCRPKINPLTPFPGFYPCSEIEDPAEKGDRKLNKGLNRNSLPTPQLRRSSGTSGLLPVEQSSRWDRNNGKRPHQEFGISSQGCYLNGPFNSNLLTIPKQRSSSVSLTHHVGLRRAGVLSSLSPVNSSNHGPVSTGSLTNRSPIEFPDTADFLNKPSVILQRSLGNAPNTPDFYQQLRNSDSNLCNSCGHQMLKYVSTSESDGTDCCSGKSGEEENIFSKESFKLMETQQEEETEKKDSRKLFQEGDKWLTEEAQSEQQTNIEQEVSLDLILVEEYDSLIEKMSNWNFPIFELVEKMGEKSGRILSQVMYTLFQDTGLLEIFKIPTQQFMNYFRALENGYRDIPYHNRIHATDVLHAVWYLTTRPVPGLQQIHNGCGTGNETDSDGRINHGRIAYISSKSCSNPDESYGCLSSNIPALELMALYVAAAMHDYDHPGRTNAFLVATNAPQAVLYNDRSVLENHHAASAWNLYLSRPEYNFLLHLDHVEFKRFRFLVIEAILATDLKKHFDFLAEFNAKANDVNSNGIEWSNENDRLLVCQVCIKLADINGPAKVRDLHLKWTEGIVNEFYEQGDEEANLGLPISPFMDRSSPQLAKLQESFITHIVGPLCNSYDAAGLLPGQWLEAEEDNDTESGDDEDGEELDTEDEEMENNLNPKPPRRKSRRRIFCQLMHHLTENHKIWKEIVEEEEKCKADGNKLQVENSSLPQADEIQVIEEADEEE

[10] = molecular target: High affinity 3',5'-cyclic-AMP phosphodiesterase 7A (Homo sapiens) (UniProt Q13946); assay: Inhibition of PDE7A (unknown origin) using FAM-cyclic-3',5'-AMP as substrate at 10 uM incubated for 1 hrs by fluorescence polarization based IMAP assay relative to control
Chain of High affinity 3',5'-cyclic-AMP phosphodiesterase 7A (Homo sapiens) (Q13946 whole entry): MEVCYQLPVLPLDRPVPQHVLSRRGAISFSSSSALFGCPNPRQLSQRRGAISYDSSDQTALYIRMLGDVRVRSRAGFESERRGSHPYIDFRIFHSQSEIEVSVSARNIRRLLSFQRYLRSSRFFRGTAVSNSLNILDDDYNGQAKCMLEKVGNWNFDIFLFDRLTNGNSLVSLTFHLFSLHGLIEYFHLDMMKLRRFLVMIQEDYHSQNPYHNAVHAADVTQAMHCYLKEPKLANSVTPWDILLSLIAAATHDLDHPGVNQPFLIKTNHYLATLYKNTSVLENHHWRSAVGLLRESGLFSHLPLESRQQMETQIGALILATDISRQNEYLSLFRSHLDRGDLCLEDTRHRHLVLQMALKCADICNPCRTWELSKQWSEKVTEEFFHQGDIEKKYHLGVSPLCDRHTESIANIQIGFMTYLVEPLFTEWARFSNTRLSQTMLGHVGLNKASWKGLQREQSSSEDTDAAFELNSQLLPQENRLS

[11] = molecular target: High affinity cAMP-specific and IBMX-insensitive 3',5'-cyclic phosphodiesterase 8A (Homo sapiens) (UniProt O60658); assay: Inhibition of PDE8A1 (unknown origin) using FAM-cyclic-3',5'-AMP as substrate at 10 uM incubated for 1 hrs by fluorescence polarization based IMAP assay relative to control
Chain of High affinity cAMP-specific and IBMX-insensitive 3',5'-cyclic phosphodiesterase 8A (Homo sapiens) (O60658 whole entry): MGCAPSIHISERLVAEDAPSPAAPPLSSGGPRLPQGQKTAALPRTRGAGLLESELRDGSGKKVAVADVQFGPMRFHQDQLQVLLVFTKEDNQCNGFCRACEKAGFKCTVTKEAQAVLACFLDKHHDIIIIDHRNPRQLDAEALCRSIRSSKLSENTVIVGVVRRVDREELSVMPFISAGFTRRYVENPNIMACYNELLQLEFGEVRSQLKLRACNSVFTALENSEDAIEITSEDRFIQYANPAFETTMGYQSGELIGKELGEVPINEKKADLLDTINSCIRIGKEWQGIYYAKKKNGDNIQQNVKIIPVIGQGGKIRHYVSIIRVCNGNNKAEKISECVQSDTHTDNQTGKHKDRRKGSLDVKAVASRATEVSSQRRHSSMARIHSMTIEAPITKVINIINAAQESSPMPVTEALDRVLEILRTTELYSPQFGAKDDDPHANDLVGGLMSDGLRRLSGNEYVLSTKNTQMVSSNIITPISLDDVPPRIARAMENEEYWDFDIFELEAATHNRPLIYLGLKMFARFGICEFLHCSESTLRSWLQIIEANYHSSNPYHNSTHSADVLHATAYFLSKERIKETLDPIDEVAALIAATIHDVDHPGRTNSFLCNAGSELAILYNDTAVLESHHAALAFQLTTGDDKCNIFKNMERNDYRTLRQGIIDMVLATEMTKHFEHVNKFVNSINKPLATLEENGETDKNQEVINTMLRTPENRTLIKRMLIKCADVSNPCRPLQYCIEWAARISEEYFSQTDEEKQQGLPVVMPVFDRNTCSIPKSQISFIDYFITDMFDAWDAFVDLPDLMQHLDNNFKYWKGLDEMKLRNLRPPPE

[12] = molecular target: High affinity cGMP-specific 3',5'-cyclic phosphodiesterase 9A (Homo sapiens) (UniProt O76083); assay: Inhibition of PDE9A (unknown origin) using FAM-cyclic-3',5'-AMP as substrate at 10 uM incubated for 1 hrs by fluorescence polarization based IMAP assay relative to control
Chain of High affinity cGMP-specific 3',5'-cyclic phosphodiesterase 9A (Homo sapiens) (O76083 whole entry): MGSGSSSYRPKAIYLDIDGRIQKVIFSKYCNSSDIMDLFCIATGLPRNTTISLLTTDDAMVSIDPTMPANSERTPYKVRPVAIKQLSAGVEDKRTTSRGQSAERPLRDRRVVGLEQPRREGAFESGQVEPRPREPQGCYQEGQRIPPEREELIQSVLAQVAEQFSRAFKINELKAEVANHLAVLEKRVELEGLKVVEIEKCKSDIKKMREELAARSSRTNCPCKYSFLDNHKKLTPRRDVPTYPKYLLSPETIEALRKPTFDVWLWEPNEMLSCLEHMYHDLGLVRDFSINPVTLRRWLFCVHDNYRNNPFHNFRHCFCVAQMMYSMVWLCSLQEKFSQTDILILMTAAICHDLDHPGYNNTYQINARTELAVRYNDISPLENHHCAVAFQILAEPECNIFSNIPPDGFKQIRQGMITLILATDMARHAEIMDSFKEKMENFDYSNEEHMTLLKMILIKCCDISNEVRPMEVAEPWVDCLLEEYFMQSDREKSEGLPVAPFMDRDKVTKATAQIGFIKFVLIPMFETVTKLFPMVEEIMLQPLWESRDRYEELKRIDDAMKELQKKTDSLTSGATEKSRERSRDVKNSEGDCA

[13] = Selectivity ratio for inhibition of PDE3B (unknown origin) using FAM-cyclic-3',5'-AMP as substrate to inhibition of PDE4D7 (unknown origin) using FAM-cyclic-3',5'-AMP as substrate
[14] = Selectivity ratio for inhibition of PDE7A (unknown origin) using FAM-cyclic-3',5'-AMP as substrate to inhibition of PDE4D7 (unknown origin) using FAM-cyclic-3',5'-AMP as substrate
[15] = Selectivity ratio for inhibition of PDE8A1 (unknown origin) using FAM-cyclic-3',5'-AMP as substrate to inhibition of PDE4D7 (unknown origin) using FAM-cyclic-3',5'-AMP as substrate
[16] = Selectivity ratio for inhibition of PDE9A (unknown origin) using FAM-cyclic-3',5'-AMP as substrate to inhibition of PDE4D7 (unknown origin) using FAM-cyclic-3',5'-AMP as substrate
[17] = Selectivity ratio for inhibition of PDE3B (unknown origin) using FAM-cyclic-3',5'-AMP as substrate to inhibition of PDE4B1 (unknown origin) using FAM-cyclic-3',5'-AMP as substrate
[18] = Selectivity ratio for inhibition of PDE7A (unknown origin) using FAM-cyclic-3',5'-AMP as substrate to inhibition of PDE4B1 (unknown origin) using FAM-cyclic-3',5'-AMP as substrate
[19] = Toxicity in ketamine/xylazine-induced anesthetic C57BL/6J mouse model assessed as emetogenic potential by measuring reduction in anesthesia duration at 5 mg/kg, po preadministered with compound for 15 mins followed by ketamine/xylazine administration; assay type: organism-based; conditions: in vivo, 0.25 h
[20] = Oral bioavailability in Sprague-Dawley rat at 10 mg/kg measured after 48 hrs by LC-MS/MS analysis; assay type: ADME, organism-based; conditions: in vivo
[21] = Half-life in Sprague-Dawley rat at 10 mg/kg, po measured after 48 hrs by LC-MS/MS analysis; assay type: ADME, organism-based; conditions: in vivo

Chain of 3',5'-cyclic-AMP phosphodiesterase 4B (Q07343 whole entry): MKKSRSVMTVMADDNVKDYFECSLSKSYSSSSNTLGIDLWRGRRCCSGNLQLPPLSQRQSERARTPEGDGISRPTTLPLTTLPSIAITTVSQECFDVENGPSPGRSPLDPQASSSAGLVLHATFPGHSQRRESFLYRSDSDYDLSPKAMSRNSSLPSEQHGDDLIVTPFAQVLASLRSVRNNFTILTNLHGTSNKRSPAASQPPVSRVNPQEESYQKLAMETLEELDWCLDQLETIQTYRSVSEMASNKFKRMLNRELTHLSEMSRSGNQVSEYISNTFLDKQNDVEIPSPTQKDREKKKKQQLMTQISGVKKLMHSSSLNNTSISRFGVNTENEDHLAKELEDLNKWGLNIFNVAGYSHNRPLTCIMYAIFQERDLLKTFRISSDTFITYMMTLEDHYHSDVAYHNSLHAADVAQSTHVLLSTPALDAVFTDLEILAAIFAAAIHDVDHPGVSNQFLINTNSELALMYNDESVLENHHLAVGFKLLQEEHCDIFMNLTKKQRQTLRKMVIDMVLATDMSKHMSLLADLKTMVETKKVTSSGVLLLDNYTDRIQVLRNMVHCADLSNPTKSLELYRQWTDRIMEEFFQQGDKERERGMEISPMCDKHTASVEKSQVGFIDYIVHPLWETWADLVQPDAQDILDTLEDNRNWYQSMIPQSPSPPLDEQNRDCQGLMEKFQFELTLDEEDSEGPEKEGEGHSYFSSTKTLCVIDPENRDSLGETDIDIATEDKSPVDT

## CCOc1nc(Cl)cc2nn(CCC(=O)O)cc12
[1]
  IC50: 35.2 nM
[2]
  IC50: 25.6 nM
[3]
  inhibition: 69%
[4]
  inhibition: 35%
SH-SY5Y
  Activity: Non-Toxic
HT-22
  Activity: Non-Toxic
[5]
  Stability: Stable
[6]
  Stability: Stable
[7]
  Selectivity ratio: > 284
[8]
  Selectivity ratio: > 284
[9]
  inhibition: 7%
[10]
  inhibition: 12%
[11]
  inhibition: 7%
[12]
  inhibition: 6%
[13]
  Selectivity ratio: > 284
[14]
  Selectivity ratio: > 284
[15]
  Selectivity ratio: > 284
[16]
  Selectivity ratio: > 284
[17]
  Selectivity ratio: > 284
[18]
  Selectivity ratio: > 284
[19]
  Activity: Toxic

## CCNc1cc(C(=O)C2CCCC2)ccc1OC
[20]
  bioavailability: 43%
[21]
  half-life: 59.4 min

Source: ChEMBL document CHEMBL5532675, “Discovery of 4-Ethoxy-6-chloro-5-azaindazoles as Novel PDE4 Inhibitors for the Treatment of Alcohol Use Disorder and Alcoholic Liver Diseases” (J Med Chem, 2024)
